According to US7074824B2, “Pharmaceutical compositions containing beta-lapachone, or derivatives or analogs thereof, and methods of using same” (Arqule, Inc., priority 2001, dated 2006):
≈ marks a conversion by molar mass, not a printed value. Like-named read-outs stand apart in the source and are kept apart here.

Tests used:
human PBMC = settings: cited from earlier work
A2780DDP = test system: A2780DDP
Protocol: In testing β-lapachone against the cisplatin-resistant-cell lines, cells were exposed to β-lapachone solutions for 4 h. The cells were then rinsed and fresh medium was added. Cultures were observed daily for 10–20 days and then were fixed and stained. Colonies of greater than 30 cells were scored as survivors.

human cancer cell lines = settings: single agent, typical range; read-out: antineoplastic activity (IC50); cited from earlier work
[1] = test system: Human ovarian cancer cells (36M2); experiment: Human ovarian cancer xenograft model, β-lapachone in Lipiodol and Taxol®; assay type: in vivo, athymic female nude mice; settings: i.p., 10 cycles
Protocol: Human ovarian cancer cells (36M2, originally isolated from malignant ascites) were inoculated by i.p. injection into athymic female nude mice 24 h after irradiation. In this model, metastatic foci form approximately 1 week after inoculation, and tumor nodules of the peritoneum and malignant ascites develop in 4–5 weeks. Ten days after tumor inoculation (10×10^6 cells), treatment regimens were initiated. The control group was treated with vehicle alone. In each typical treatment cycle, the β-lapachone alone group was treated with 25–50 mg/kg i.p. of β-lapachone in Lipiodol solution and the Taxol® alone group was treated at 1 mg/kg i.p. (Taxol® formulation diluted in Lipiodol), both followed 24 h later by i.p. injection of vehicle. In the combination group, nude mice were treated with β-lapachone at 25–50 mg/kg, followed 24 h later by Taxol® at 1 mg/kg. All groups were treated for 10 cycles, with a 1-day break between each cycle. […] Host toxicity was evaluated by general appearance and body weight.

[2] = Solubility of β-lapachone in aqueous HPBCD solutions (heated to 70° C., filtered, HPLC); assay type: physicochemical
Protocol: A β-lapachone/HPBCD solution was prepared without prior solubilization of the β-lapachone in ethanol solution. β-lapachone was combined with aqueous solutions of HPBCD in varying concentrations and the mixtures were heated to 70° C., then allowed to cool to room temperature. The cooled solutions were filtered (0.22μ), and the amount of the solubilized β-lapachone was measured by HPLC analysis.

[3] = Solubility in water and in 40% (w/v) HPBCD solution by UV absorbance; assay type: physicochemical; settings: for solubility at 1 h: thermodynamic from solid
Protocol: To determine solubilities, test compounds were first dissolved in ethanol to prepare standard solutions with concentrations in the range 2.5–10 mg/ml, then were diluted with to 10 μg/ml with water. UV scans were obtained of the 10 μg/ml standard solutions, and the wavelength of maximum absorbance and the absorbance at the maximum absorbance wavelength were determined. For each test compound 50 μl aliquots of water and of 40% HPBCD were added to individual Eppendorf tubes containing approximately 1 mg of compound each. The tubes were heated in a 30° C. waterbath, vortexed, then centrifuged at 15,000 rpm for 5 min. This step was repeated, then the tubes were cooled to room temperature for 1 hour, then were centrifuged again. The supernatant from each tube was diluted with water into the appropriate absorbance range, and the UV absorbance was measured at the compound's absorbance maximum wavelength. The concentrations of these saturated solutions were then calculated by ratio to the 10 μg/ml ethanolic standard solutions.

[4] = test system: six human cancer cells lines; experiment: MTS growth inhibition assay, summary over all lines; assay type: cell-based; settings: all six tumor cell lines; tested up to 20 μM
Protocol: A2780 and A2780/CP (ovarian); MCF-7 (breast); HT-29 (colon); BxPC-3 (pancreas); and A549 (lung). The human tumor cell lines (purchased from ATCC, Rockville, Md.) were cultured at 37° C. (5% CO2) in RPMI medium (RPMI; Nova Tech, Grand Island, N.Y.) containing 10% fetal bovine serum (FBS, Nova Tech). Aliquots of cells were seeded into each well of 96-well microtiter plates at a final concentration of 10^4 cells/well and incubated for 24 h prior to exposure to test compounds. […] The MTS assay is a colorimetric assay based upon the ability of viable cells to convert MTS, a novel tetrazolium compound and electron-coupling reagent, to a colored formazan product that is soluble in cell culture medium. The cell concentration is then determined by measuring the absorbance of the formazan product at 490 nm. Growth inhibition, expressed as IC50, is calculated relative to vehicle-treated control cells.

[5] = Solubility of β-lapachone in common solvent systems used for intravenous delivery; assay type: physicochemical
Source text: β-lapachone, as well as its derivatives and analogs thereof (also referred to herein as the “active compounds”), are described in Li, C. J. et al., J. Biol. Chem., 1993. These active compounds can be incorporated into pharmaceutical compositions suitable for parenteral administration. Such compositions typically comprise the active compound and a pharmaceutically acceptable carrier, excipient, diluent or adjuvant. However, the low solubility of β-lapachone in most pharmaceutically acceptable solvents has been an obstacle to the development of a suitable formulation for parenteral and topical administration, particularly intravenous and cutaneous administration, respectively. Table 1 illustrates the limited solubility of β-lapachone in common solvent systems used for intravenous delivery of drugs. […] To achieve this plasma concentration, an intravenous formulation must have a β-lapachone concentration approaching 10 mg/ml and be able to be diluted 5–×10× with sterile fluids for intravenous administration, such as saline or D5W.
Various pharmaceutically acceptable solvent systems known to solubilize hydrophobic drug substances were evaluated with β-lapachone. […] However, none of these systems could be diluted 5× with sterile saline without significant precipitation of the β-lapachone from solution. In addition, most of these co-solvents and surfactants have their own toxicity and tolerability issues that need to be managed during high dose drug administration.

**Q.** What does the source list for `CC1(C)CCC2=C(O1)c1ccccc1C(=O)C2=O` [β-lapachone]?
**A.** cytotoxic effects on normal cells (human PBMC): No cytotoxic effects were observed; cytotoxicity as single agent, resistant versus parent line (A2780DDP): equally cytotoxic; IC50 (human cancer cell lines): 1 to 10 µM; decrease in tumor number versus control ([1]; assessed day 50, β-lapachone 25–50 mg/kg in Lipiodol, Taxol® 1 mg/kg): ~75%; size of the tumor nodules and amount of ascites ([1]; laparotomy at day 50): considerable reduction in the size of the tumor nodules and the amount of ascites; β-lapachone (highest conc.) ([2]; 10% HPBCD in water): 3.1 mg/mL; β-lapachone (highest conc.) ([2]; 20% HPBCD in water): 7.4 mg/mL; β-lapachone (highest conc.) ([2]; 30% HPBCD in water): 10.8 mg/mL; β-lapachone (highest conc.) ([2]; 40% HPBCD in water): 15.8 mg/mL; Solubility Enhancement ([3]; 1 h): 323 −Fold; solubility at 1 h ([3]; aqueous with cosolvent or surfactant or cyclodextrin): 14000 µg/mL (≈ 57.8 mM); solubility at 1 h ([3]; water): 43 µg/mL (≈ 0.177 mM); growth inhibitory activity, verbal summary [4]: dose-dependent inhibitory effect; solubility ([5]; EtOH 76% diluted 5X in 0.9% saline, aqueous with cosolvent or surfactant or cyclodextrin, EtOH 76%, diluted in 0.9% saline, read-out: β-lapachone Solubility, 5X dilution): 102 µg/mL (≈ 0.423 mM); solubility ([5]; EtOH 76%, organic solvent or mixture, read-out: β-lapachone Solubility, Undiluted): 10700 µg/mL (≈ 44 mM); solubility ([5]; PEG 400, organic solvent or mixture, read-out: β-lapachone Solubility, Undiluted): 11700 µg/mL (≈ 48.2 mM); solubility ([5]; PEG 400 diluted 5X in 0.9% saline, aqueous with cosolvent or surfactant or cyclodextrin, PEG 400, diluted in 0.9% saline, read-out: β-lapachone Solubility, 5X dilution): 140 µg/mL (≈ 0.578 mM); solubility ([5]; Poloxamer 20% diluted 5X in 0.9% saline, aqueous with cosolvent or surfactant or cyclodextrin, Poloxamer 20%, diluted in 0.9% saline, read-out: β-lapachone Solubility, 5X dilution): 33.1 µg/mL (≈ 0.137 mM); solubility ([5]; Poloxamer 20%, aqueous with cosolvent or surfactant or cyclodextrin, read-out: β-lapachone Solubility, Undiluted): 2040 µg/mL (≈ 8.4 mM); solubility ([5]; Povidone K12 20% diluted 5X in 0.9% saline, aqueous with cosolvent or surfactant or cyclodextrin, Povidone K12 20%, diluted in 0.9% saline, read-out: β-lapachone Solubility, 5X dilution): 31.3 µg/mL (≈ 0.129 mM); solubility ([5]; Povidone K12 20%, aqueous with cosolvent or surfactant or cyclodextrin, read-out: β-lapachone Solubility, Undiluted): 1860 µg/mL (≈ 7.68 mM); solubility ([5]; Povidone K17 20% diluted 5X in 0.9% saline, aqueous with cosolvent or surfactant or cyclodextrin, Povidone K17 20%, diluted in 0.9% saline, read-out: β-lapachone Solubility, 5X dilution): 31.2 µg/mL (≈ 0.129 mM); solubility ([5]; Povidone K17 20%, aqueous with cosolvent or surfactant or cyclodextrin, read-out: β-lapachone Solubility, Undiluted): 1820 µg/mL (≈ 7.53 mM); solubility ([5]; Propylene Glycol diluted 5X in 0.9% saline, aqueous with cosolvent or surfactant or cyclodextrin, Propylene Glycol, diluted in 0.9% saline, read-out: β-lapachone Solubility, 5X dilution): 95 µg/mL (≈ 0.392 mM); solubility ([5]; Propylene Glycol, organic solvent or mixture, read-out: β-lapachone Solubility, Undiluted): 8780 µg/mL (≈ 36.2 mM); solubility ([5]; Trappsol 20% diluted 5X in 0.9% saline, aqueous with cosolvent or surfactant or cyclodextrin, Trappsol 20%, diluted in 0.9% saline, read-out: β-lapachone Solubility, 5X dilution): 30 µg/mL (≈ 0.124 mM); solubility ([5]; Trappsol 20%, aqueous with cosolvent or surfactant or cyclodextrin, read-out: β-lapachone Solubility, Undiluted): 1460 µg/mL (≈ 6.05 mM); solubility ([5]; Tween 80, aqueous with cosolvent or surfactant or cyclodextrin, read-out: β-lapachone Solubility, Undiluted): 11200 µg/mL (≈ 46.1 mM); solubility ([5]; Tween 80 diluted 5X in 0.9% saline, aqueous with cosolvent or surfactant or cyclodextrin, Tween 80, diluted in 0.9% saline, read-out: β-lapachone Solubility, 5X dilution): 1660 µg/mL (≈ 6.83 mM); solubility ([5]; organic solvent or mixture, highest of all solvent systems, undiluted, read-out: maximum solubility in the solvents listed in Table 1): ~12000 µg/mL (≈ 49.5 mM)
